{"source": "patent US10058532B2", "about": "“Methods of preventing progression to type 2 diabetes mellitus” (Vivus, Inc., priority 2013, dated 2018)", "origin": "cited, not measured here", "note": "Where two headings read alike, the source gives them in different places.", "data": [{"molecule": "CC1(C)O[C@@H]2[C@@H](CO[C@@]3(COS(N)(=O)=O)OC(C)(C)O[C@@H]23)O1", "note": "[Topiramate, 2,3:4,5-di-O-isopropylidene-β-D-fructopyranose sulfamate]", "values": [{"measurement": "solubility", "setting": "methanol and acetone", "value": "freely soluble"}, {"measurement": "solubility", "setting": "pH 1 to pH 8 aqueous solutions", "value": "slightly soluble"}, {"measurement": "solubility", "setting": "pH 9 to pH 12 aqueous solutions", "value": "sparingly soluble"}]}]}
